This is an account of results in patent US5589489A, “Cyclic amide derivatives for treating asthma” (Zeneca Limited, priority 1993, dated 1996).

The target of this assay is T1, guinea pig trachea (Cavia porcellus, UniProt Q64077).
T1 construct: functional assay in guinea pig trachea; from tissue; host or cells: guinea pig trachea (male animals), tracheal rings
T1 sequence (Q64077 1-402): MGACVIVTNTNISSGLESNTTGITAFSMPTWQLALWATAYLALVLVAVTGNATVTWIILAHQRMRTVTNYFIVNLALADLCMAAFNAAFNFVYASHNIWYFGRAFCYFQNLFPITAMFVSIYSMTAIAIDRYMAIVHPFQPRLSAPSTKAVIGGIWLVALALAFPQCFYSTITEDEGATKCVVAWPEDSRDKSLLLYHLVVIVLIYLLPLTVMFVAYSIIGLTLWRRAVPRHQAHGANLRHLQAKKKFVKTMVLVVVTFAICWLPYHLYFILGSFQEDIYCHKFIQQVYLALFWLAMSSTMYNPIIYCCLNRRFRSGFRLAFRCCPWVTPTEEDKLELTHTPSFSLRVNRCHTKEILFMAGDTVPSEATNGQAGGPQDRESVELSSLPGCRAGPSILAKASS
The assay can be described thus: Guinea Pig Assay (Test B), functional antagonism of NKA or [β-ala8]-NKA(4-10) in guinea pig trachea. It is filed as cell-based. The conditions noted are these: read-out: pKB (-log molar KB, apparent dissociation constant) (converted). The method, then:
The chosen agonist is refered to as AG throughout the description.
Male guinea pigs are killed by a sharp blow to the back of the head. The trachea are removed, trimmed of excess tissue and divided into two segments. Each segment is suspended as a ring between stainless steel stirrups in water-jacketed (37.5° C.) tissue baths containing a physiological salt solution of the following composition (mM): NaCl, 119; KCl 4.6; CaCl2, 1.8; MgCl2, 0.5; NaH2 PO4, 1; NaHCO3, 25; glucose, 11; thiorphan, 0.001; and indomethacin, 0.005; gassed continuously with 95% O2 -%5 CO2. […] Contractile responses are measured on a Grass polygraph via Grass FT-03 force transducers.
Tissues are challenged repetitively with a single concentration of AG (10 nM) with intervening 30 min periods with washing to allow the tension to return to baseline levels. […] Percent inhibition is determined when a Compound produces a statistically significant (p<0.05) reduction of the contraction and is calculated using the second contractile response as 100%.
Potencies of selected Compounds are evaluated by calculating apparent dissociation constants (KB) for each concentration tested using the standard equation: […]
where dose ratio=antilog[(AG -log molar EC50 without Compound)-(AG -log molar EC50 with Compound)]. The KB values may be converted to the negative logarithms and expressed as -log molar KB (i.e. pKB). […]

In general, Kb refers to the affinity of an antagonist, worked out from how it opposes an agonist.

Where a name gives a salt, the structure may show the parent alone.

Regarding `CN1C(=O)c2ccccc2[C@H]1[C@@H](CCN1CCC(O)(c2ccccc2)CC1)c1ccc(Cl)c(Cl)c1` (single isomer, unassigned) [Example 4, (-)-(3R/3S)-3-[(1S/1R)-1-(3,4-dichlorophenyl)-3-(4-hydroxy-4-phenylpiperidino)propyl]-2-methyl-2,3-dihydroisoindol-1-one hydrochloride], the Kb is 20 nM.
